These results are taken from US9850227B2 (YUHAN CORPORATION, priority 2011, dated 2017).

The structures appear in SMILES notation. pEC50: −log10 of the molar value. Counter-ions that a name gives are not always drawn.

The target of the test is T1, human 5-HT4(a) (Homo sapiens, UniProt Q13639).
T1 construct: host or cells: GeneBIAzer HTR4-CRE-bla CHO-K1 cells
T1 sequence (Q13639 1-387 isoform Q13639-2): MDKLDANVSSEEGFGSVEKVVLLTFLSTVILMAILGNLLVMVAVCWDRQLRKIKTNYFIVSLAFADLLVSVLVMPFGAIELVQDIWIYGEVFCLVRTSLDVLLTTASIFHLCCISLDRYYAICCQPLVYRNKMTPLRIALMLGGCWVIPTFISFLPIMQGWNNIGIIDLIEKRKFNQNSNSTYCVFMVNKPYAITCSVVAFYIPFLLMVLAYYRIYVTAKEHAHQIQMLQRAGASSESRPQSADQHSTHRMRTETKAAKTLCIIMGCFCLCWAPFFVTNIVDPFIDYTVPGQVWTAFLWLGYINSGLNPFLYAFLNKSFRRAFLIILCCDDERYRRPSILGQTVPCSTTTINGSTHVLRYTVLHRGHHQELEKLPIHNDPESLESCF
In words: Evaluation of agonistic activity in CHO-K1 cells expressing human 5-HT4(a) (GeneBIAzer HTR4-CRE-bla CHO-K1 cells, beta-lactamase fluorescence ratio, EC50 from 8 concentrations). Type of test: cell-based. On the procedure:
Evaluation of Agonistic Activity in CHO-K1 Cells Expressing Human 5-HT4(a)
As CHO-K1 cells stably expressing human 5-HT4(a), we used the GeneBIAzer HTR4-CRE-bla CHO-K1 cells (Invitrogen Corp.). The cells were cultured, under the condition of 37° C. and 5% CO2, in a DMEM supplemented with 10% fetal bovine serum (FBS), 25 mM HEPES (pH7.4), 600 μg/ml hygromycin B, 0.1 mM non-essential amino acids, 100 unit/ml penicillin and 100 μg/ml streptomycin. Subcultures were performed three times per one week, each being at less than 80% confluence. At the previous day before treating test compounds, the cells were collected using 0.5% trypsin/EDTA and then diluted with a DMEM supplemented with 1% FBS, 25 mM HEPES, and 0.1 mM non-essential amino acids into 3.125×10^5 cells/ml. 32 μl of the diluted cells were added into 384-well plate (10^4 cells per well) and then incubated overnight. After the overnight culture, 8 μl of the medium having 1% of DMSO was added into the cell-free control well and the non-stimulating control well, respectively. 8 μl of the respective test compound dilutions (which had been prepared by diluting by 100-times with the medium as mentioned in the above) having 1% of DMSO were added to the respective remaining wells. After being cultured in the incubator for 5 hours, the wells of the 384-plate were treated with the substrate solution (8 μl per well) prepared according to the vendor's instruction (i.e., Invitrogen's instruction), and then incubated in the dark room for additional two hours. Agonistic activities on 5-HT4 receptor were evaluated, on the basis of fluorescence values of the cleavage-products by beta-lactamase. After exciting to 410 nm of wavelength using a fluorescence detector (Genios Pro), we measured the fluorescence values at two emission wavelengths (first wavelength: 465 nm, second wavelength: 535 nm). Data were analyzed on the basis of the ratio of fluorescence intensities of each well at the respective wavelengths. Each EC50 value was calculated by non-linear regression analysis using the “GraphPad Prism” program, based on the activities according to 8-different concentrations of the test compounds.
Turning to `CCCCc1cc(N2CCC[C@@H](NC)C2)nc(Nc2cc(N)cc(C(F)(F)F)c2)n1` [Example 313, (R)—N^1-{4-butyl-6-[3-(methylamino)piperidin-1-yl]pyrimidin-2-yl}-5-(trifluoromethyl)benzene-1,3-diamine], the pEC50 is 11.30.
To `CCCCN[C@@H]1CCCN(c2cc(CCC)nc(Nc3ccc(C)c(C#N)c3)n2)C1` [Example 207, (R)-5-{4-[3-(butylamino)piperidin-1-yl]-6-propylpyrimidin-2-ylamino}-2-methylbenzonitrile] belongs 10.89.
To `CCCc1cc(N2CCC[C@@H](NC(C)=O)C2)nc(Nc2ccc(F)c(C(F)(F)F)c2)n1` [Example 277, (R)—N-{1-[2-(4-fluoro-3-trifluoromethylphenylamino)-6-propylpyrimidin-4-yl]piperidin-3-yl}acetamide] belongs 10.85; to `CCCCN[C@H]1CCCN(c2cc(CCC)nc(Nc3ccc(C)c(C#N)c3)n2)C1` [Example 154, (S)-5-{4-[3-(butylamino)piperidin-1-yl]-6-propylpyrimidin-2-ylamino}-2-methylbenzonitrile], 10.39.
With `CCCc1cc(N2CCC[C@H](NCCC(C)C)C2)nc(Nc2ccc(C)c(C#N)c2)n1` [Example 157, (S)-5-{4-[3-(isopentylamino)piperidin-1-yl]-6-propylpyrimidin-2-ylamino}-2-methylbenzonitrile] the figure was 10.06; with `CCCc1cc(N2CCNC[C@H]2C)nc(Nc2ccc(F)c([N+](=O)[O-])c2)n1` [Example 121, (R)-N-(4-fluoro-3-nitrophenyl)-4-(2-methylpiperazin-1-yl)-6-propylpyrimidin-2-amine], 10.03; with `CCCc1cc(N2CCC[C@H](NCc3ccc[nH]3)C2)nc(Nc2ccc(C)c(C#N)c2)n1` [Example 159, (S)-5-(4-{3-[(1H-pyrrol-2-yl)methylamino]piperidin-1-yl}-6-propylpyrimidin-2-ylamino)-2-methylbenzonitrile], 10.34.
Consider `CCCc1cc(N2CCOCC2)nc(Nc2cccc([N+](=O)[O-])c2)n1` [Example 83, 4-morpholino-N-(3-nitrophenyl)-6-propylpyrimidin-2-amine hydrochloride], for which the pEC50 was 9.44.
With `CCCCc1cc(N2CCC[C@@H](N)C2)nc(Nc2ccc(C)c(C#N)c2)n1` [Example 293, (R)-5-[4-(3-aminopiperidin-1-yl)-6-butylpyrimidin-2-ylamino]-2-methylbenzonitrile] the figure was 10.64; with `CCCCc1cc(N2CCC[C@@H](NC)C2)nc(Nc2cc(N)cc(C#N)c2)n1` [Example 315, (R)-3-amino-5-({4-butyl-6-[3-(methylamino)piperidin-1-yl]pyrimidin-2-yl}amino)benzonitrile], 11.92; with `CCCc1cc(N2CCC[C@@H](NCC)C2)nc(Nc2ccc(N)c(C(F)(F)F)c2)n1` [Example 291, (R)—N^1-[4-(3-ethylaminopiperidin-1-yl)-6-propylpyrimidin-2-yl]-3-(trifluoromethyl)benzene-1,4-diamine], 11.55.
With `CCCCc1cc(N2CCC[C@@H](NC)C2)nc(Nc2ccc(N)c(C#N)c2)n1` [Example 316, (R)-2-amino-5-({4-butyl-6-[3-(methylamino)piperidin-1-yl]pyrimidin-2-yl}amino)benzonitrile] the figure was 11.17; with `CCCc1cc(N2CCC[C@@H](N)C2)nc(Nc2ccc(C)c(C#N)c2)n1` [Example 153, (R)-5-[4-(3-aminopiperidin-1-yl)-6-propylpyrimidin-2-ylamino]-2-methylbenzonitrile], 10.70; with `CCCCc1cc(N2CCC[C@@H](N)C2)nc(Nc2ccc(C)c([N+](=O)[O-])c2)n1` [Example 339, (R)-4-(3-aminopiperidin-1-yl)-6-butyl-N-(4-methyl-3-nitrophenyl)pyrimidin-2-amine], 10.77.
In the case of `CCCc1cc(N2CCCC3CCCCC32)nc(Nc2ccc3[nH]c(C(F)(F)F)nc3c2)n1` (centres unmarked) [Example 200, N-[4-(octahydroquinolin-1(2H)-yl)-6-propylpyrimidin-2-yl]-2-(trifluoromethyl)-1H-benzo[d]imidazol-5-amine], the pEC50 was 9.74.
With `CCCc1cc(N2CCC[C@H](N(CC)CC)C2)nc(Nc2ccc(C)c(C#N)c2)n1` [Example 165, (S)-5-[4-(3-diethylaminopiperidin-1-yl)-6-propylpyrimidin-2-ylamino]-2-methylbenzonitrile] the figure was 9.73.
With `CCCc1cc(N2CCC[C@@H](NCc3cccs3)C2)nc(Nc2ccc(C)c(C#N)c2)n1` [Example 214, (R)-2-methyl-5-(4-propyl-6-{3-[(thiophen-2-ylmethyl)amino]piperidin-1-yl}pyrimidin-2-ylamino)benzonitrile] the figure was 10.14.
For the compound `CCCCc1cc(N2CCC[C@@H](NC)C2)nc(Nc2ccc(F)c(C(F)(F)F)c2)n1` [Example 320, (R)-4-butyl-N-[4-fluoro-3-(trifluoromethyl)phenyl]-6-[3-(methylamino)piperidin-1-yl]pyrimidin-2-amine], the pEC50 is 10.74.
To `CCCCc1cc(N2CCC[C@@H](N)C2)nc(Nc2ccc(F)c(C#N)c2)n1` [Example 294, (R)-5-[4-(3-aminopiperidin-1-yl)-6-butylpyrimidin-2-ylamino]-2-fluorobenzonitrile] belongs 9.97; to `CCCCc1cc(N2CCC[C@@H](NC(C)=O)C2)nc(Nc2ccc(F)c([N+](=O)[O-])c2)n1` [Example 234, (R)—N-{1-[6-butyl-2-(4-fluoro-3-nitrophenylamino)pyrimidin-4-yl]piperidin-3-yl}acetamide], 10.82.
To `CCCc1cc(N2CCC[C@H](NCc3cc(C)c(C)o3)C2)nc(Nc2ccc(C)c(C#N)c2)n1` [Example 161, (S)-5-(4-{3-[(4,5-dimethylfuran-2-ylmethyl)amino]piperidin-1-yl}-6-propylpyrimidin-2-ylamino)-2-methylbenzonitrile] belongs 9.83; to `CCCCc1cc(N2CCC[C@@H](NC(C)=O)C2)nc(Nc2ccc(N)c([N+](=O)[O-])c2)n1` [Example 232, (R)—N-{1-[2-(4-amino-3-nitrophenylamino)-6-butylpyrimidin-4-yl]piperidin-3-yl}acetamide], 11.43; to `CCCc1cc(N2CCCCC2CC)nc(Nc2cccc(C#N)c2)n1` (centres unmarked) [Example 111, 3-[4-(2-ethylpiperidin-1-yl)-6-propylpyrimidin-2-ylamino]benzonitrile], 10.04.
To `CCCc1cc(N2CCCCC2CC)nc(Nc2cccc([N+](=O)[O-])c2)n1` (centres unmarked) [Example 99, 4-(2-ethylpiperidin-1-yl)-N-(3-nitrophenyl)-6-propylpyrimidin-2-amine] belongs 9.43; to `CCCCc1cc(N2CCCC(NC(C)=O)C2)nc(Nc2ccc(C)c(C#N)c2)n1` (centres unmarked) [Example 298, N-{1-[6-butyl-2-(3-cyano-4-methylphenylamino)pyrimidin-4-yl]piperidin-3-yl}acetamide hydrochloride], 10.92.
Turning to `CCCc1cc(N2CCC[C@@H](N)C2)nc(Nc2cccc(C#N)c2)n1` [Example 221, (R)-3-[4-(3-aminopiperidin-1-yl)-6-propylpyrimidin-2-ylamino]benzonitrile dihydrochloride], the pEC50 was 9.91.
With `CCCCc1cc(N2CCC[C@@H](NC(C)=O)C2)nc(Nc2ccc(Cl)c(N)c2)n1` [Example 242, (R)—N-{1-[2-(3-amino-4-chlorophenylamino)-6-butylpyrimidin-4-yl]piperidin-3-yl}acetamide] the figure was 11.04.
With `CCCc1cc(N2CCCCC2CCO)nc(Nc2ccc(C)c(N)c2)n1` (centres unmarked) [Example 180, 2-{1-[2-(3-amino-4-methylphenylamino)-6-propylpyrimidin-4-yl]piperidin-2-yl}ethanol] the figure was 9.82.
To `CCCCc1cc(N2CCC[C@@H](NC)C2)nc(Nc2ccc(F)c(N)c2)n1` [Example 317, (R)—N^1-{4-butyl-6-[3-(methylamino)piperidin-1-yl]pyrimidin-2-yl}-4-fluorobenzene-1,3-diamine] belongs 11.18; to `CCCCc1cc(N2CCC[C@@H](N)C2)nc(Nc2ccc(N)c(C#N)c2)n1` [Example 350, (R)-2-amino-5-{[4-(3-aminopiperidin-1-yl)-6-butylpyrimidin-2-yl]amino}benzonitrile], 10.55.
Consider `CCCc1cc(N2CCC[C@@H](NC(=O)CO)C2)nc(Nc2cccc(C#N)c2)n1` [Example 245, (R)—N-{1-[2-(3-cyanophenylamino)-6-propylpyrimidin-4-yl]piperidin-3-yl}-2-hydroxyacetamide], for which the pEC50 is 10.33.
With `CCCN[C@@H]1CCCN(c2cc(CCC)nc(Nc3ccc(F)c(C#N)c3)n2)C1` [Example 225, (R)-2-fluoro-5-{4-[3-(propylamino)piperidin-1-yl]-6-propylpyrimidin-2-ylamino}benzonitrile] the figure was 10.68.

The term pEC50 denotes the EC50 on a negative log10 scale, so that one unit is a factor of ten.
